Earlier results as cited in US20190054044A1, “ORAL DOSAGE FORM OF BOTH CLOMIPHENE ISOMERS AND METHOD OF USING SAME TO TREAT SECONDARY HYPOGONADISM AND MINIMIZE DRUG SIDE EFFECTS IN MEN” (ASPEN PARK PHARMACEUTICALS, INC., priority 2016, published 2019).
Where a name gives a salt, the structure may show the parent alone.

Key:
[1] = baboons
[2] = men
[3] = commercial doses (25 mg PO daily or 50 mg PO every other day)

## CCN(CC)CCOc1ccc(/C(=C(\Cl)c2ccccc2)c2ccccc2)cc1 (single isomer, unassigned) [cis-isomer of clomiphene]
[1]; range of doses tested
  LH secretion: inhibited LH secretion
  peripheral testosterone: reduced peripheral testosterone towards castrate blood levels

## CCN(CC)CCOc1ccc(/C(=C(/Cl)c2ccccc2)c2ccccc2)cc1 [ANDROXAL, trans clomiphene citrate]
Clinical study
  changes in visual acuity noted as an adverse event: 0.2%
  fatigue (side effect incidence): 2.8%
  headache (side effect incidence): 6.6%
  muscle spasms (side effect incidence): 4%
  transient blurred vision (side effect incidence): 1.4%
Clinical study, conducted during the cold, flu and allergy season
  upper respiratory tract infections (side effect incidence): 11.6%
Treated versus placebo subjects, clinical studies
  number of skeletal fractures: Increase in number of skeletal fractures

## CCN(CC)CCOc1ccc(C(=C(Cl)c2ccccc2)c2ccccc2)cc1 [CLOMID, clomiphene citrate]
[2]
  safety for long-term management of hypogonadism: safe
[2]; long-term
  T levels: raised T levels substantially
  osteopenia/osteoporosis: improving osteopenia/osteoporosis
[3]
  bone mineral density: decrease bone mineral density
  risk of fractures: increase the risk of fractures

## CCN(CC)CCOc1ccc(/C(=C(/Cl)c2ccccc2)c2ccccc2)cc1 [ENCLOMID]
[1]
  total serum testosterone: significantly and statistically raised total serum testosterone
